Source: publication PMC10166890, “Screening for DAX1/EWS‐FLI1 functional inhibitors identified dihydroorotate dehydrogenase as a therapeutic target for Ewing's sarcoma” (Cancer Medicine, 2023)

Assays:
[1] = tested on: DAX1; test: DAX1 reporter assay (KJMGER8/pAGal9p4‐hDAX1 cells, luciferase); assay type: cell-based, human
Experimental: pAGal9‐hDAX1 and pAPPRE×10‐Luc + were transfected into KJMGER8 cells by electroporation using a Gene Pulser (Bio‐Rad Laboratories, Hercules, CA, USA), and clones stably expressing the DAX1 and luciferase reporter genes under the control of PPRE were selected. The obtained clone was termed KJMGER8/pAGal9p4‐hDAX1. KJMGER8/pAGal9p4‐hDAX1 cells (1.8 × 10^4 cells/well) were seeded in 384‐well white plates (Greiner Japan, Tokyo, Japan) and cultured in RPMI1640‐IPTSG medium containing 10 nM 17β‐estradiol (E2; Sigma‐Aldrich), dissolved in ethanol, with test compounds at concentration ranges of 0.01 to 10,000 nM or vehicle (dimethyl sulfoxide [DMSO]). The final DMSO concentration was ≤0.3%, and the ethanol concentration was 0.1%. The next day, Blight‐Glo Luciferase Assay Reagent (Promega, Madison, WI, USA) was added to the medium. The luciferase activity was measured using a TopCount NXT system (PerkinElmer, Waltham, MA, USA). IC50 values were calculated using XLfit version 4 (ID Business Solutions, Surrey, UK).
A DAX1 reporter assay system was constructed with the estrogen‐inducible Namalwa cell (KJMGER8 cell) by co‐transfection with pAGal9‐hDAX1 and pAPPRE×10‐Luc+.[18] In the obtained cell line KJMGER8/pAGal9p4‐hDAX1, DAX1 expression is induced by E2 treatment, and the expressed DAX1 increases luciferase expression. Reporter activity was increased by E2 treatment as expected (Figure S2). […] Using this DAX1 reporter assay system, small‐molecule compounds in an in‐house library were screened to obtain DAX1 inhibitors, and K‐234 was identified (Figure 1).
pAGal9-hDAX1 and pAPPRE×10-Luc+ were transfected into KJMGER8 cells by electroporation using a Gene Pulser (Bio-Rad Laboratories, Hercules, CA, USA), and clones stably expressing the DAX1 and luciferase reporter genes under the control of PPRE were selected. The obtained clone was termed KJMGER8/pAGal9p4-hDAX1. KJMGER8/pAGal9p4-hDAX1 cells (1.8×10^4 cells/well) were seeded in 384-well white plates (Greiner Japan, Tokyo, Japan) and cultured in RPMI1640-IPTSG medium containing 10 nM 17β-estradiol (E2; Sigma-Aldrich), dissolved in ethanol, with test compounds at concentration ranges of 0.01 to 10000 nM or vehicle (dimethyl sulfoxide [DMSO]). The final DMSO concentration was ≤0.3%, and the ethanol concentration was 0.1%. The next day, Blight-Glo Luciferase Assay Reagent (Promega, Madison, WI, USA) was added to the medium. The luciferase activity was measured using a TopCount NXT system (PerkinElmer, Waltham, MA, USA). IC50 values were calculated using XLfit version 4 (ID Business Solutions, Surrey, UK)

[2] = tested on: A‐673 cells; test: Cell viability assay (XTT), A‐673 cells; assay type: cell-based, human
Experimental: AsPC‐1, A‐673, and TC‐71 cells were seeded in 96‐well plates (800 cells/well for AsPC‐1, 2000 cells/well for A‐673, and 400 cells/well for TC‐71) and cultured overnight. Vehicle (DMSO) or a test compound diluted with the medium was then added to the wells (final DMSO concentration was 0.3%), and 72 h later, 2,3‐bis[2‐methoxy‐4‐nitro‐5‐sulfophenynl]‐2H‐tetrazolium‐5‐carboxanilide inner salt (XTT) reagent (Roche Diagnostics, Mannheim, Germany) was added to the medium. After 3‐h incubation at 37°C, the formation of the formazan dye was determined by measuring absorbance at 490 and 650 nm using a SpectraMax 340PC system (Molecular Devices, Sunnyvale, CA, USA).

[3] = biological target: T1, DHODH (Homo sapiens, UniProt Q02127); test: DHODH inhibition assay, A‐673 mitochondria fraction (orotic acid production, LCMSMS); assay type: biochemical; conditions: read-out: IC50 for orotic acid production through DHODH
T1 construct: The mitochondria fraction was isolated from A‐673 cells using Q proteome Mitochondria Isolation kit; endogenous in cells; host or cells: A-673 cells, mitochondria fraction
T1 sequence (Q02127 whole entry): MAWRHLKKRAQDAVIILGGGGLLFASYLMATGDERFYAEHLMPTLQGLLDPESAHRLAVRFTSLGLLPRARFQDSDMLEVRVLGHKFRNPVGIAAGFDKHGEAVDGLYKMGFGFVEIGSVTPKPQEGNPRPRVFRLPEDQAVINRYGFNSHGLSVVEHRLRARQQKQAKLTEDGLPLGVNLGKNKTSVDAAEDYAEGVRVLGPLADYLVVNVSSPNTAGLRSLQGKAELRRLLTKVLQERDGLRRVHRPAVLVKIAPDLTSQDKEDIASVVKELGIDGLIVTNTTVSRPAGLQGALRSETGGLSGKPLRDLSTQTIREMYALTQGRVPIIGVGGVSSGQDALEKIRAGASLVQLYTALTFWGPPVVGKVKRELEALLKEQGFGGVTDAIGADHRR
Experimental: The mitochondria fraction was isolated from A‐673 cells using Q proteome Mitochondria Isolation kit (QIAGEN, Hilden, Germany). The protein concentration of the fraction was determined using the DC‐protein assay kit (Bio‐Rad Laboratories, Hercules, CA, USA) with bovine serum albumin (Sigma‐Aldrich) as the standard. […] The reaction was quenched by adding 120 μL of 3 μM 5‐fluoroorotic acid acetonitrile solution. These samples were then centrifuged at 5000 g for 5 min to precipitate proteins, and the supernatant was collected. The samples were diluted 10‐fold with 70% acetonitrile‐water and subjected to liquid chromatography with tandem mass spectrometry (LCMSMS). The analyte was then separated on a hydrophilic interaction chromatography column (PC‐HILIC; 5 μm, 4.6 mm I.D. × 50 mm; Osaka Soda, Osaka, Japan). LCMSMS detection was performed by electrospray ionization in negative ion mode.

In the case of `Cc1nc(-c2ccc(C3c4[nH]c5ccc(Cl)cc5c4CCN3C(=O)Oc3ccccc3)cc2)no1` (centres unmarked) [K-733, phenyl 6‐chloro‐1‐(4‐(5‐methyl‐1,2,4‐oxadiazol‐3‐yl)phenyl)‐1,3,4,9‐tetrahydro‐2H‐pyrido[3,4‐b]indole‐2‐carboxylate], the IC50 ([1]; Homo sapiens, KJMGER8/pAGal9p4‐hDAX1 cells, 10 nM E2, overnight, read-out: IC50 for inhibition of DAX1 reporter activity) is reported as 9.01 nM, the “Effect of uridine addition on inhibition of DAX1 reporter activity” value ([1]; uridine 100 μM, overnight) is reported as “completely abrogated” and the “Cell viability of A‐673 cells” value ([2]; 72 h) is reported as “decreased the viability”. It also gave a GI50 ([2]; Homo sapiens, A673, 50% growth inhibition concentration, A‐673 cells) of 6.11 nM and an IC50 [3] of 0.953 nM.
